In one test the test system is phospho-ERK1/2. Put plainly: Western blot of atrium: phospho-ERK1/2. Format: in vivo, mouse. Conditions: TSA-Hop^Tg mice relative to Hop^Tg, FIG. 2D. How it is done: Adult mouse atrium and ventricle were dissected and homogenized in buffer containing 1% Igepal surfactant, 0.5% deoxycholate sodium, 2% SDS, 5 mmol EDTA (pH=7.4), 1% protease inhibitor cocktail tablet (Roche) with and without phosphatase inhibitor cocktail (Sigma-Aldrich). Samples were cleared of debris by centrifugation at 5000 g for 10 min. and the protein concentration was determined using a BCA protein assay kit (Pierce). Protein samples were run on a 4-12% gradient pre-cast SDS-PAGE gel (Invitrogen), and after electrophoresis were transferred onto PVDF membranes (Millipore) using 0.1% acetic acid/10% methanol as a transfer buffer. Membranes were incubated with primary antibodies in 5% milk and PBS overnight at 4° C. and then washed for 5 min, 4 times with TBS-T solution. […] Results were visualized by enhanced chemiluminescence using a commercially available kit (Western Breeze, Invitrogen) and data were recorded on BioMax-MR film (Kodak, Rochester, N.Y.). Densitometry was determined using the Image-J software package (National Institutes of Health). […]
(In general: In western blotting, separated proteins are transferred to a membrane and probed.)

For test [1], the system named is connexin40 and connexin43. The test is described as follows: Distribution of atrial connexins (quantitative confocal immunodetection). Format: in vivo, mouse. Conditions: TSA-treated Hop^Tg mice. As for the experimental part: Mice were heparizined, anesthetized with pentobarbital […] and hearts excised through a sternotomy. Hearts were mounted on a Langendorf apparatus, perfused with Tyrode's solution (composition as in Ref. 21) at 3.0-3.5 milliliter [ml]/minute [min] at a temperature of 36°-37° C. Hearts were perfused with Ca^2+-free Tyrode's solution for 6 min., followed by 12-15 min. of perfusion with Ca^2+-free Tyrode's solution containing: collagenase B, collagenase D (Roche Chemical Co.) and protease (Fraction IV, Sigma Chemical Co.). […]
The area of immunoreactive signal in discrete spots from isolated atrial myocytes was quantified using laser scanning confocal microscopy. Scanning of single optical slices (<1 μm) by confocal laser scanning microscopy was done on the Leica TCS SP2 system using the spectral detection set for simultaneous fluorescence imaging of Alexa488 and DIC imaging with transmitted light to obtain the cell outline. […] Areas were quantified using the count nuclei application in the Metamorph software package (Molecular Devices). The total area of each atrial myocyte was calculated from the DIC images and the area of the connexin immunoreactive spots was calculated from the Alexa488 fluorescent images.

The test system of a further test is histone acetylation. To be noted: TSA 0.6 mg/kg/day, previous studies; cited from earlier work.
Test [2] concerns Hop transgenic mice (Hop^Tg). Put plainly: In-vivo electrophysiology study: inducible arrhythmias by programmed electrical stimulation. The arrangement: species or system mouse. As for the experimental part: An in-vivo electrophysiology study was performed in each mouse to assess atrial and ventricular conduction, refractoriness, and arrhythmia inducibility. Surface ECG recordings and complete in vivo electrophysiological studies (EPS) were obtained from Hop^Tg mice (14-18 weeks old), age-matched non-transgenic littermates and TSA-treated Hop^Tg mice. Each mouse was anesthetized with pentobarbital ([…] IP), and multi-lead ECGs were obtained using 26-gauge subcutaneous electrodes. Temperature was maintained at 32-33° C. A jugular vein cutdown was performed and an octapolar 2-French electrode catheter (CIBer mouse-EP; NuMED, Inc) placed in the right atrium and ventricle under electrogram guidance to confirm catheter position. A programmed digital stimulator (DTU-215A, Bloom Associates Ltd) was used to deliver electrical impulses at approximately twice diastolic threshold. […] ECG channels were filtered from 0.5 to 250 Hz and intracardiac electrograms were filtered from 5 to 400 Hz. ECG intervals were measured by two independent observers blinded to the animal's genotype.
The PR, QRS, RR, and QT intervals were measured in 6 surface-limb ECG leads by 2 independent observers, who were both blinded to the animals' genotype. Intracardiac recordings were obtained during identical pacing and programmed electrical stimulation protocols for all mice by experienced investigators.
Trichostatin A 0.6 mg/kg daily in a volume of 0.2 mL was given by intraperitoneal injection for 14 consecutive days prior to cardiac electrical stimulation in Hop transgenic mice (Hop^Tg) compared with wild-type controls (WT).
Ventricular programmed electrical stimulation induced similar numbers and durations of ventricular tachycardia in 3 of 11 Hop^Tg mice compared to 4 of 12 control mice (P=NS).

Where [3] appears, read: TSA 0.6 mg/kg daily IP 14 days, Hop^Tg mice.
The mark [4] stands for this setting: TSA 0.6 mg/kg daily IP 14 days, Hop^Tg mice, n = 10.
[5] abbreviates: TSA 0.6 mg/kg daily IP 14 days, Hop^Tg mice, n = 10, mean±SD.

For the compound `CC(/C=C/C(=O)NO)=C\[C@@H](C)C(=O)c1ccc(N(C)C)cc1` [TSA, Trichostatin A], the “Phospho-ERK1/2 protein expression in atrium” value in the test with phospho-ERK1/2 is recorded as “increased”. Further, the “Distribution of connexin40 and connexin43 in the atrium” value in test [1] is on record as “restored”. In the test with histone acetylation, the “Histone acetylation in the heart, in words” value is “does augment histone acetylation”. In test [2] (setting [3]), the “Mice with AT” value is 2/15 and the “Mice with VT” value was 2/15. In addition, in test [2] (setting [4]), the “Episodes AT (atrial tachycardia)” value is recorded as 5 and the “Episodes VT (ventricular tachycardia)” value is listed as 4. For the same compound, in test [2] (setting [5]), the “AT CL (atrial tachycardia cycle length)” value amounted to 47.0 ± 7.2 ms, the “Duration AT” value amounted to 0.148 ± 0.110 s, the “Duration VT” value is on record as 0.89 ± 1.07 s and the “VT CL (ventricular tachycardia cycle length)” value is listed as 50.4 ± 8.6 ms. The “Mice in which atrial programmed electrical stimulation induced atrial arrhythmia” value in test [2] (TSA-Hop^Tg mice vs 9 of 11 Hop^Tg mice, P<0.01) is on record as 2 of 10. Besides, the “Mice in which ventricular programmed electrical stimulation induced ventricular tachycardia” value in test [2] (TSA-Hop^Tg mice vs Hop^Tg mice, P<0.05) is given as 2 of 10. Moreover, the “Atrial arrhythmia inducibility (in words)” value in test [2] (TSA-treated Hop transgenic mice vs untreated) is “complete reversal of atrial arrhythmia inducibility”. The “Duration and episodes of atrial fibrillation (in words)” value in test [2] (TSA-treated Hop^Tg mice vs untreated) is on record as “reduced”.

The values are drawn from patent publication US9884031B2, “Use of HDAC inhibitors for treatment of cardiac rhythm disorders” (THE TRUSTEES OF THE UNIVERSITY OF PENNSYLVANIA, priority 2007, dated 2018).
